According to US10874730B2, “Methods for treating brain cancer using il-13r alpha 2 peptide-based compositions” (University of Pittsburgh—Of the Commonwealth System of …, priority 2004, dated 2020):

What was measured:
human glioma cells U-251 = assay: 4-hr 51Cr-release assay, peptide-induced CTL lines against glioma cells; format: cell-based; details: each E/T ratio, FIG. 3
Method: CD8+ cells derived from an HLA-A2+ glioma patient were stimulated with native IL-13Rα2345-353 (●), IL-13Rα2-V9 (∘), IL-13Rα2-A1V9 (Δ), or IL-13Rα2-E1V9 (X). On day 10, the cells were tested for lytic ability against human glioma cells SNB19 (A) and U-251 (B) (both are IL-13Rα+/HLA-A2+) using 4-Hr ^51 Cr-release assay. Against SNB19 glioma cells, p<0.05 at all E/T ratios for IL-13Rα2-V9 vs. native IL-13Rα2345-353 as well as IL-13Rα2-A1V9 vs. native IL-13Rα2345-353 by two-tailed Student-t tests. Against U251 glioma cells, p<0.05 at E/T ratio of 10 and 40 for IL-13Rα2-V9 vs. native IL-13Rα2345-353 as well as IL-13Rα2-A1V9 vs. native IL-13Rα2345-353 by two-tailed Student-t tests. […] The data presented represent one of three experiments with different donors with similar results.
(§1) The ability of modified peptides, such as IL-13Rα2-V9, to enhance the CTL activity against HLA-A2+ human glioma cells that endogenously expressed and presented IL-13Rα2-derived epitopes was examined. Human glioma cell lines U251 and SNB19 express HLA-A2 and IL-13Rα2, whereas human glioma cell line A172 expresses IL-13Rα2 but not HLA-A2 (Okano et al., 2002).
(§2) The lytic ability of the peptide-induced CTL lines against these glioma cells was examined using 4-hr ^51Cr-release assays.

HLA-A2 = target: T1, HLA-A2 (Homo sapiens, UniProt P04439, D140Y/D185E/D98H/E176V/E277Q/G131W/G231S/I119V/I121R/I166T/I218V/L300P/L318F/N151K/N90K/P208A/P217A/Q86G/Q94H/R138H/R169H/T345S); assay: HLA-A2 binding: surface expression of HLA-A2 on T2 cells by flow cytometry; details: 1 nM
T1 construct: expressed in transfected cells; host or cells: T2 cells
Method: The binding capability of these modified peptides was assessed using an HLA-A2 transfected T2 cell line. Aliquots of T2 cells were incubated with modified peptides or IL-13Rα2345-353 at 1 nM overnight, and then examined for the surface expression levels of HLA-A2 on T2 cells by flow cytometry. Since stable binding of HLA-A2 with peptide epitopes further stabilizes the surface expression of HLA-A2 (Francini et al., 2002; Alves et al., 2003), quantitative expression levels of HLA-A2, which is indicated by Mean Fluorescence Intensity (MFI) in Table 1, correlate with the binding affinity of the peptide-epitopes that are co-incubated with the T2 cells.

EL4-HHD-IL-13Rα2 cells = assay: Immunization of HHD mice, spleen cell cytotoxicity (4 hr 51Cr-release); format: in vivo; details: for specific CTL activity against EL4-HHD-IL-13Rα2 cells: 100 μg peptide s.c. in IFA with HBVcore128-140, FIG. 7; for magnitude of CTL activities in comparison to native IL-13Rα2345-353 against EL4-HHD-IL-13Rα2 cells: p<0.05 at all effector/target ratios
Method: (§3) Control animals received IFA containing HBV helper-peptide only. Eleven days after the last immunization, the animals were sacrificed, and 5×10^6 spleen cells (SPCs) were stimulated in vitro with the same peptide that was used for in vivo stimulation (10 μM). On day 6 of culture, the bulk populations were tested for specific cytotoxicity against the EL4-HHD cells expressing IL-13Rα2 or EL4-HHD pulsed with IL-13 Rα2345-353.
(§4) EL4-HHD-IL-13Rα2 and EL4-HHD were labeled with 100 μCi of ^51Cr for 60 min, plated in 96-well V-bottomed plates (3×10^3 cell/well). Labeled EL4-HHD were pulsed with IL-13Rα2345-353 (1 μM) at 37° C. for 2 h. Control target cells were pulsed with no peptides. Stimulated SPCs were then added as effector cells and incubated at 37° C. for 4 h. One hundred μl of supernatant were collected and radioactivity measured in a gamma counter.

[1] = test system: T2 cells loaded with the wild type IL-13Rα2345-353; assay: 4-hr 51Cr-release assay, peptide-induced CTL lines against peptide-loaded T2 cells; format: cell-based, human; details: for lysis of T2 target cells pulsed with 100 ng/ml wild type IL-13Rα2345-353 by peptide-stimulated T cells: CD8+ T cells of HLA-A*0201+ glioma patients stimulated with peptide-pulsed DCs, day 10, FIG. 1; for magnitude of CTL reactivity against T2 cells loaded with native IL-13Rα2345-353 compared with native or IL-13Rα2-E1V9: E/T ratio 12.5, P<0.01 vs native at 0.1 and 1 nM, FIG. 1
human glioma cells SNB19 = assay: 4-hr 51Cr-release assay, peptide-induced CTL lines against glioma cells; format: cell-based; details: for lysis of SNB19 in comparison to the native IL-13Rα2345-353 peptide: each E/T ratio, FIG. 3; for anti-SNB19 glioma cell lytic activities on addition of cold T2 cells pulsed IL-13Rα2345-353: cold target competition, FIG. 4
Method: CD8+ cells derived from an HLA-A2+ glioma patient were stimulated with native IL-13Rα2345-353 (●), IL-13Rα2-V9 (∘), IL-13Rα2-A1V9 (Δ), or IL-13Rα2-E1V9 (X). On day 10, the cells were tested for lytic ability against human glioma cells SNB19 (A) and U-251 (B) (both are IL-13Rα+/HLA-A2+) using 4-Hr ^51 Cr-release assay.
The CTL lines induced with each peptide (control (A); Flu (B); IL-13Rα2345-353 (C); IL-13Rα2345-9V (D)) were incubated for 4 h with ^51Cr-labeled human glioma cell lines SNB19 at the indicated E:T ratios for evaluation of specific lytic ability (●). For the cold target inhibition assay, ^51Cr-labeled target SNB19 cells (1×10^3 cells/well) and cold T2 cells (1×10^4 cells/well) pulsed with (Δ) or without (∘) peptide IL-13Rα2345-353 were incubated with the CTLs.
The CTL lines induced with each peptide (control (A); Flu (B); IL-13Rα2345-353 (C); IL-13Rα2345-9V (D)) were incubated for 4 h with ^51Cr-labeled human glioma cell line SNB19 at the indicated E:T ratios for evaluation of specific lytic ability (●). Anti-HLA-A2 antibody (W6/32; 10 μg/ml) was added to block the function of HLA-A2 mediated recognition by the T cells (a).
as §1, §2
To determine the specificity of the lytic activity, cold target competition experiments were performed by addition of non-radiolabeled (cold) T2 cells pulsed with IL-13Rα2345-353 peptide in the 4-h ^51Cr-release assay (FIG. 4).
Furthermore, anti-HLA-A2 antibody (W6/32) was used to block the HLA-A2 mediated signaling in the CTL reactivity.

gp100 = assay: IFN-γ ELISPOT on patient PBMC, phase I/II trial; format: in vivo, human; details: both dose levels combined, Wilcoxon test
Text: This study was designed to assess toxicity and the induction of immune and preliminary clinical responses of vaccinations with GAA-loaded αDC1 and administration of poly-ICLC (Hiltonol®, Oncovir, Inc.). The first course of vaccines consisted of 4 ultrasound-guided intranodal (i.n.) administrations of 1 or 3×10^7 αDC1/injections every 2 weeks (FIG. 19) rotating each of inguinal and axillary lymph node clusters to minimize the potential effects of injection-induced trauma in the microenvironment of the lymph nodes by repeating injections in short periods. The first 10 evaluable patients received 1×10^7 αDC1/injection (Dose Level 1), then 9 received 3×10^7 αDC1/injection (Dose Level 2). All patients received intramuscular (i.m.) injections with poly-ICLC (20 μg/kg) twice/week for 8 weeks starting on day 1. […]
Enzyme-linked immunosorbent spot (ELISPOT) assays were performed as described previously (see, e.g., Kirkwood et al, Clin. Cancer Res., 15:1443-1451, 2009) with slight modifications. Briefly, batched PBMC samples were evaluated simultaneously following in vitro stimulation with autologous, irradiated PBMC loaded with wild-type IL-13Rα345-353, EphA2883-891, GP100209-217 and YKL-40202-211 for a week. […]

[2] = Salazar et al., Neurosurgery, 38: 1096-1103, 1996; cited from earlier work
[3] = Toxicity assessment (NCI Common Toxicity Criteria version 3.0), phase I/II trial; format: in vivo, human; details: Patient 6, following the 154th injection of poly-ICLC
Text: This study was designed to assess toxicity and the induction of immune and preliminary clinical responses of vaccinations with GAA-loaded αDC1 and administration of poly-ICLC (Hiltonol®, Oncovir, Inc.). The first course of vaccines consisted of 4 ultrasound-guided intranodal (i.n.) administrations of 1 or 3×10^7 αDC1/injections every 2 weeks (FIG. 19) rotating each of inguinal and axillary lymph node clusters to minimize the potential effects of injection-induced trauma in the microenvironment of the lymph nodes by repeating injections in short periods. The first 10 evaluable patients received 1×10^7 αDC1/injection (Dose Level 1), then 9 received 3×10^7 αDC1/injection (Dose Level 2). All patients received intramuscular (i.m.) injections with poly-ICLC (20 μg/kg) twice/week for 8 weeks starting on day 1. […] Starting at Week 13, these patients were treated with the same dose of additional vaccinations every 4 weeks to a maximum of 5 vaccine injections and i.m. poly-ICLC starting on the day of the first additional vaccine and twice/week (1st booster phase).
The trial was monitored continuously for treatment-related AE using National Cancer Institute Common Toxicity Criteria version 3.0. […]

[4] = solution 2 mg per cc, room temperature; cited from earlier work
[5] = test system: preclinical brain tumor models; details: Zhu et al., J. Transl. Med., 5: 10, 2007; cited from earlier work
[6] = test system: human glioma cells expressing HLA-A2 and EphA2 protein; assay: 4-hr 51Cr-release assay, EphA2883-891-stimulated CD8+ T cells against glioma cells; format: cell-based; details: stimulation with peptide-loaded DCs for 10 days, FIG. 9
Method: CD8+ T cells from an HLA-A2+ glioma patients were stimulated with DCs loaded with EphA2883-891 for 10 days. These T cells were then tested for their lytic activity against human glioma cells SNB19 (HLA-A2+, EphA2+) (▴), U251 (HLA-A2+, EphA2+) (▪) and A172 (HLA-A2−, EphA2+) (▾) by 4-hr ^51Cr-release assay.
EphA2 is an attractive tumor-associated antigen and a target for tumor-vaccines, as 5 HLA-A2 and 3 DR4 T cell epitopes have been previously identified (Tatsumi et al., 2003).

[7] = test system: EL4-HHD cells pulsed with the native IL-13Rα2345-353; assay: Immunization of HHD mice, spleen cell cytotoxicity (4 hr 51Cr-release); format: in vivo; details: 100 μg peptide s.c. in IFA with HBVcore128-140; difference not statistically significant; FIG. 6
Method: as §3, §4

Substance | lysis of U-251 in comparison to the native IL-13Rα2345-353 peptide (human glioma cells U-251) | binding affinity to HLA-A2 compared with the native IL-13Rα2345-353 (HLA-A2) | specific CTL activity against EL4-HHD-IL-13Rα2 cells (EL4-HHD-IL-13Rα2 cells) | magnitude of CTL activities in comparison to native IL-13Rα2345-353 against EL4-HHD-IL-13Rα2 cells (EL4-HHD-IL-13Rα2 cells) | lysis of T2 target cells pulsed with 100 ng/ml wild type IL-13Rα2345-353 by peptide-stimulated T cells [1] | magnitude of CTL reactivity against T2 cells loaded with native IL-13Rα2345-353 compared with native or IL-13Rα2-E1V9 [1] | lysis of SNB19 in comparison to the native IL-13Rα2345-353 peptide (human glioma cells SNB19) | anti-SNB19 glioma cell lytic activities on addition of cold T2 cells pulsed IL-13Rα2345-353 (human glioma cells SNB19) | other results
ALPFGFILV (Amino acid residues 345-353 of Interleukin-13 Receptor alpha with mutation of W to A at position 345 and I to V at position 353) [A1V9] | higher levels of lysis | higher | induced a specific CTL activity | higher magnitude | efficiently lysed | higher magnitude | higher levels of lysis |  | 
IMDQVPFSV (Amino acid residues 209-217 of GP100 with mutation of T to M at position 210) [gp100 epitope] |  |  |  |  |  |  |  |  | magnitude of IFN-γ ELISPOT response among the GAA peptides tested (gp100): highest magnitude of response
Polyinosinic-Polycytidylic acid stabilized with polylysine and carboxymethylcellulose [poly-ICLC] |  |  |  |  |  |  |  |  | safety [2]: safe; adverse event during the 2nd booster phase considered to be DLT [3]: grade 2 systemic urticaria; stability [4]: stable at room temperature for several days; effect on vaccine effects [5]: enhance the vaccine effects
TLADFDPRV (Amino acid residues 883-891 of EphA2) [EphA2883-891] |  |  |  |  |  |  |  |  | anti-glioma CTL reactivity of CD8+ cells from HLA-A2+ glioma patients [6]: anti-glioma CTL reactivity has been induced
WLPFGFILI (Amino acid residues 345-353 of Interleukin-13 Receptor alpha) [Native, reference compound] |  |  | induced a specific CTL activity |  | efficiently lysed |  |  | almost completely inhibited | 
WLPFGFILV (Amino acid residues 345-353 of Interleukin-13 Receptor alpha 2 with mutation of I to V at position 353) [V9, I was replaced with V at P9] | higher levels of lysis | higher | induced a specific CTL activity | higher magnitude | efficiently lysed | higher magnitude | higher levels of lysis | almost completely inhibited | CTL reactivity against EL4-HHD cells pulsed with the native peptide compared with other peptides examined [7]: trend toward higher levels of CTL reactivity; CTL activities against T2 cells loaded with IL-13Rα2345-353 compared with the wild type-induced CTL line ([1]; 1, 10 and 100 nM peptide, E/T ratio=50, FIG. 2): higher CTL activities; antigen-specific CTL response in comparison to the wild type IL-13Rα2345-353 ([1]; E/T ratio of 50, 25 and 12.5): significantly higher level
